The subject of experiment [1] is E. coli induced oxidative burst in human whole blood. The experiment is described as follows: E. coli induced oxidative burst in human whole blood (Phagoburst kit, Example 26). It counts as cell-based. The settings on record: read-out: IC50 for the inhibition of the E. coli induced oxidative burst in human whole blood. The protocol: The whole blood assay is carried out according to the instructions from the Phagoburst-Kit (Orpegen Pharma). 50 μg/ml of Refludan is used to inhibit blood clotting (Mollnes et al. 2002 Blood 100: 1869). Freshly drawn, anticoagulated blood is cooled over ice and 100 μl thereof are added to 10 μl of the compound solution containing at most 1.3% of DMSO. The mixture is incubated for 10 minutes at 37° C. After this the samples are put on ice again and 20 μl of opsonisated E. coli suspension (10^9 cells/ml) is added followed by 10 minutes of incubation at 37° C. 20 μl of the substrate are added to the cells followed by another 10 minutes of incubation at 37° C. After this 2 ml of lysis buffer are added to the cells, which are then kept at room temperature for 20 minutes. The cellular components are separated by centrifugation at 250×g for 5 minutes. The supernatant is discarded and 3 ml of washing solution are added to the pellet. The cells are centrifuged again and the resulting pellet is taken up in 200 μl DNA staining solution. The neutrophiles are analysed by means of a FACS device (FACSCalibur, Becton-Dickinson) according to the parameters given in the manual. […] It can be seen that, due to the determined activity, the compounds of this invention are suited to be used as therapeutics in human.

Experiment [2] has as its target T1, human C5a receptor (CD88) (Homo sapiens, UniProt P21730).
T1 construct: expressed in transfected cells; host or cells: rat basophilic leukemia (RBL) cells, stably transfected
T1 sequence (P21730 1-350): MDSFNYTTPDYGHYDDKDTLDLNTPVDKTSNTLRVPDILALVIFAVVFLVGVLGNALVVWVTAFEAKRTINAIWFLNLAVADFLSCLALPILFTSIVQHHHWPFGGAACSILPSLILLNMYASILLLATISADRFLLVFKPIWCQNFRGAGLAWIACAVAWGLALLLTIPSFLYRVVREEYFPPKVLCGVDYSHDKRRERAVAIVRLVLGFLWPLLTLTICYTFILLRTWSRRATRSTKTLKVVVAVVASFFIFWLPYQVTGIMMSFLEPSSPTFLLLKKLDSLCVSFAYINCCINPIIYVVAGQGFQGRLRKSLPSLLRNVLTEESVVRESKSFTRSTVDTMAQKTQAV
The experiment is described as follows: Agonism in enzyme release assay without C5a stimulus (Example 32). It counts as cell-based. The settings on record: concentration applied 7.1 μM. The protocol: The assay has been described by Köhl (Köhl 1997 The Anaphylatoxins. In: Dodds, A. W., Sim, R. B. (Eds.), Complement: A Practical Approach. Oxford: 135). Basophile leukemia cells from rats (RBL), which express the human C5a receptor (CD88), are cultivated in DMEM with 10% fetal calf serum, 100 U/ml penicillin, 100 μg/ml streptomycin and 2 mM glutamin (all constituents are from Biochrome, Berlin) at 37° C. and with 10% CO2 until a confluent layer is obtained. All following details refer to a tissue culture flask with 75 cm^2 surface. The used up medium is removed. The cells are washed with 10 ml PBS (Dulbecco's PBS, Biochrome) and then covered with 3 ml cell dissociation solution (CDS, Sigma). The cells are incubated for 1 minute at room temperature. Then the CDS is removed and the cells are incubated for further 10-15 minutes at 37° C. to detach the cells completely from the flask. 20 μl solution of the compound to be testet are used in the assay. The assay solution must not contain more than 2.8% DMSO. The dilution series are prepared in ⅓ or ½ steps. To the 20 μl of the compound solutions 75 μl RBL cells are added which are prepared as follows: After the detachment of the cells from the flask surface they are taken up with 10 ml HAG-CM (20 mM HEPES; 125 mM NaCl, 5 mM KCl, 1 mM CaCl2, 1 mM MgCl2, 0.5 mM glucose, 0.25% BSA. HEPES preparation: 2.3 g/l HEPES salt+2.66 g/l HEPES acid) thermostated at 37° C. The cells are counted and centrifuged (200 g, 10 min). The cell pellet is taken up with pre-heated HAG-CM, and the cell density is adjusted to 2×10^6 Zellen/ml. The cells are incubated for 5 minutes at 37° C. 2.7 μl of a cytochalasin B solution (1000 μg/ml in DMSO, Sigma) are added per ml cell suspension. The Zellen are incubated for another 3 min at 37° C. Then, 75 μl of the cell suspension are added to the 20 μl solution containing the compounds to be tested. Thus a volume of […] per well is obtained. The cells are again incubated for 10 minutes at 37° C. Then 10 μl hrC5a (10.5 nM in HAG-CM, Sigma) are added per well, which is followed by 5 minutes incubation at 37° C. After this the plates are put on ice and centrifuged for 3 minutes at 1200×g and 4° C. 75 μl of the supernatant are added to 100 μl substrate solution (2.7 mg/ml p-nitrophenyl-N-acetyl-b-D-glucosaminide (Sigma) in 42.5 mM sodium acetate, pH 4.5). The plate is incubated for 1 hour at 37° C. Per well 75 μl 0.4 M glycine (pH 10.4) are added. After this the plate can be measured at a wave length of 405 nm. The IC50 value is determined by solving the four parameter equation y=((A−D)/(1+(x/C)^B))+D.
The only difference is the fact that 30 μl of the substance to be tested are mixed with 75 μl of the cell suspension described in example 28. The cells are not pre-incubated and no C5a is added to stimulate enzyme release.

What is called IC50 is the midpoint of a concentration-inhibition curve. `CCc1c(N)cc(Cl)c(CC)c1NC(=O)N(Cc1ccc(Cl)cc1)c1ccc(CC(F)(F)F)cc1` [compound 103, 3-(3-amino-5-chloro-2,6-diethyl-phenyl)-1-(4-chloro-benzyl)-1-[4-(2,2,2-trifluoro-ethyl)-phenyl]-urea]: the IC50 in experiment [1] stood at 800 nM. In addition, the “Agonism (% of the maximum enzyme release induced by C5a)” value in experiment [2] came to 0.00%.

Turning to `CCc1ccc(N(C(=O)Nc2c(CC)c(N)cc(Cl)c2CC)C(C)c2ccc3c(c2)ncn3C)cc1` (stereo not drawn) [compound 122, 3-(3-amino-5-chloro-2,6-diethyl-phenyl)-1-(4-ethyl-phenyl)-1-[1-(1-methyl-1H-benzoimidazol-5-yl)-ethyl]-urea], the IC50 in experiment [1] worked out at 3500 nM. Also, the “Agonism (% of the maximum enzyme release induced by C5a)” value in experiment [2] turned out to be 0.00%.

Turning to `CCc1ccc(N(Cc2ccc(C)nc2)C(=O)Nc2c(CC)c(N)cc(Cl)c2CC)cc1` [compound 106, 3-(3-amino-5-chloro-2,6-diethyl-phenyl)-1-(4-ethyl-phenyl)-1-(6-methyl-pyridin-3-ylmethyl)-urea], the IC50 in experiment [1] was determined as 1600 nM. The “Agonism (% of the maximum enzyme release induced by C5a)” value in experiment [2] is 0.00%.
